Values quoted from earlier work in US20040084867A1, “Individualization of therapy with anticoagulants” (Xanthus Life Sciences, Inc., priority 2002, published 2004).
Read-outs that look alike come from different tables or passages of the source.

Legend:
[1] = molecular target: CYP2C9 (Homo sapiens, UniProt P11712); settings: in vivo; cited from earlier work
[2] = tested on: CYP2C9; settings: cited from earlier work
[3] = tested on: individuals with deep vein thrombosis; settings: cited from earlier work
[4] = tested on: individuals treated with warfarin; settings: cited from earlier work
[5] = tested on: individuals with acute myocardial infarction; settings: in vivo; cited from earlier work
[6] = tested on: individuals with evolving myocardial infarction; settings: cited from earlier work; for combined incidence of death or nonfatal hemorrhagic stroke: TPA group vs groups receiving streptokinase
[7] = tested on: individuals with acute myocardial infarction; settings: cited from earlier work
[8] = tested on: coronary artery patency; settings: Heparin-Aspirin Reperfusion Trial, after TPA; aspirin 80 mg per day; cited from earlier work
[9] = tested on: slow and fast acetylators; settings: cited from earlier work
[10] = tested on: surgical and medical individuals; settings: individuals with hip fracture, begun preoperatively; cited from earlier work
[11] = cited from earlier work
[12] = tested on: poor vs. extensive metabolizers; settings: cited from earlier work
[13] = individuals who died before heparin was started excluded

CYP2C9 (Homo sapiens, UniProt P11712), sequence (P11712 whole entry): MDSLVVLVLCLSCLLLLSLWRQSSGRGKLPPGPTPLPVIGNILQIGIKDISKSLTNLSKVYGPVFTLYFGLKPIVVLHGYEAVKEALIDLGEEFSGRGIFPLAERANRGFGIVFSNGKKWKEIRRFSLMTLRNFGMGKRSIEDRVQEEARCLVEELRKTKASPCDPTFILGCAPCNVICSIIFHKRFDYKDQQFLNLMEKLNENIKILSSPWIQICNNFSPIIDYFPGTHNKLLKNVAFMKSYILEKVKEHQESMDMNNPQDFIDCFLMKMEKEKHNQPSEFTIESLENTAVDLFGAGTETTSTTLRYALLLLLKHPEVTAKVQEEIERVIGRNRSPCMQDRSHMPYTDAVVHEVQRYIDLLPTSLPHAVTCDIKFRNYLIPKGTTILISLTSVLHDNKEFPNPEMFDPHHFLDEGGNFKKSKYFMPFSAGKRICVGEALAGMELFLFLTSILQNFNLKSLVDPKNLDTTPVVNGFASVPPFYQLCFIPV

## CC(=O)CC(c1ccccc1)c1c(O)c2ccccc2oc1=O (racemic) [warfarin]
[1]
  MD (maintenance dose): vs. 0.397 (*1/*1) mg/kg/wk
[2]; 1 individual, not specified, *3/*3
  MD (daily maintenance dose): 0.5 mg/day
[2]; 38 Caucasian and African-American, *1/*3, *1/*2, *2/*2, CYP2A6*1/*2
  MD (maintenance dose): MD; 0.307 (*1/*3, *1/*2, *2/*2, CYP2A6*1/*2) mg/kg/wk
[2]; 47 Japanese, *1/*3
  MD (daily maintenance dose): 1.75 mg/day
[2]; 47 Japanese, *3/*3
  MD (daily maintenance dose): 0.4 mg/day
[2]; 52 British, *1/*2, *2/*2
  MD (daily maintenance dose): 3.5 mg/day
[2]; 52 British, *1/*3
  MD (daily maintenance dose): 2.5 mg/day
[2]; 88 British, control group
  share of group with at least 1 of *3 or *2 allele: 1 of *3 or *2 allele vs. only 38% of control
[2]; 88 British, low dose group
  risks of major bleeding: group; ↑ risks of major bleeding in the low dose
[2]; 94 British, CYP2C9 *1/*2
  MD (daily maintenance dose): 3.8 mg/day
[2]; 180 Caucasian, *1/*2, *2/*2
  MD (daily maintenance dose): 5.2 mg/day
[2]; 180 Caucasian, *1/*3
  MD (daily maintenance dose): 3.8 mg/day
[2]; 180 Caucasian, *2/*3
  MD (daily maintenance dose): 1.8 mg/day
[2]; 561 British, *1/*2
  MD (daily maintenance dose): 4.31 mg/day
[2]; 561 British, *1/*3
  MD (daily maintenance dose): 3.97 mg/day
[2]; 561 British, *2/*2
  MD (daily maintenance dose): 3.04 mg/day
[2]; 561 British, *2/*3
  MD (daily maintenance dose): 4.09 mg/day
[2]; subjects requiring a high dose (>55 mg/week)
  share of subjects homozygous for CYP2C9*1: 83%
[2]; subjects requiring a low dose (5-15 mg/week)
  share of subjects heterozygous for CYP2C9*2: 90%
[3]; Lagerstedt 1985, calf vein thrombosis, heparin 5 days then warfarin 3 months vs only heparin […] days
  recurrence rate: no recurrences
[3]; both groups: INR 2.5 to 4.5 and INR 2.0 to 2.5
  incidence of recurrence: approximately 2%
[4]; inter-individual range
  effective daily doses: 1 to 60 mg/day
[4]; varies from one individual to another
  daily dose required to maintain efficacy while avoiding side effects: 0.5 to 60 mg

## tissue plasminogen activator [TPA]
[5]
  cerebral hemorrhage rate: 0.66%
  excess of episodes of presumed hemorrhagic strokes compared with streptokinase: 4.2 per 1000
  excess of strokes compared with streptokinase: 3.5 per 1000
  stroke rate: 1.39%
[6]
  combined incidence of death or nonfatal hemorrhagic stroke: 6.6%
[6]; in vivo
  reduction of mortality compared with the streptokinase strategies: 14%
[7]; all individuals
  mortality rate: 8.7%
[7]; [13]
  mortality rate: 5.9%

## CC(=O)CC(c1ccccc1)c1c(O)c2ccccc2oc1=O (stereo not drawn) [sodium warfarin]
[3]; Hull 1979, proximal DVT, 3 months, heparin 5,000 units sc every 12 hours, sodium warfarin INR 2.5 to 4.5
  rate of recurrent venous thromboembolism: 0%

## CC(=O)Oc1ccccc1C(=O)O [aspirin]
[8]
  Coronary artery patency at 18 hours: 52%

## Nc1ccc(S(=O)(=O)c2ccc(N)cc2)cc1 [dapsone]
[9]; fast acetylators
  adverse reactions: 17%
[9]; slow acetylators
  adverse reactions: 46%

## Dextran
[10]
  incidence of thrombosis: 30%

## vitamin K
[11]; doses of 5 mg or more
  duration of resistance to warfarin: up to 1 week
[11]; parenteral administration
  time to evident partial reversal of the anticoagulant effect of warfarin: ≤ 6 h

## streptokinase
[5]
  cerebral hemorrhage rate: 0.24%
  stroke rate: 1.04%
[6]
  combined incidence of death or nonfatal hemorrhagic stroke: 7.5%
[7]; all individuals
  mortality rate: 9.2%
[7]; [13]
  mortality rate: 6.2%

## COc1ccc2c(c1)[C@]13CCCC[C@@H]1[C@H](C2)N(C)CC3 [Dextromethorphan]
[12]; EMs
  mean performance ±SE: 95±0.5%
[12]; PMs
  mean performance ±SE: 86±6%
